Tested on: Plasmodium berghei
Experiment: Luciferase/luciferin-expressing antifolate-resistant parasites were used to infect a culture of HepG2 cells that were pre-incubated with compounds. Infected hepatocytes emit light due to the luciferase reaction. Assay results are presented as the percent inhibition of light emission compared to control. […]
Format: functional
Settings: sporozoite; for IC90: read-out: LUCIFERASE INFECTION ASSAY - IC90
[1] = read-out: LUCIFERASE INFECTION ASSAY - IC50

Row | Compound | IC90 | also measured
1 | COc1ccc2c(C)nc(Nc3nc(O)c4ccccc4n3)nc2c1 | 3.1 µM | IC50 (HEPG2TOX_HILL_SLOPE 241, HEPG2TOX_R_SQUARED 0.475, PBLUC_HILL_SLOPE 24.4, PBLUC_R_SQUARED 0.363, read-out: LUCIFERASE INFECTION ASSAY - IC50): 2.83 µM
2 | O=c1cc(-c2ccccc2)[nH]c2cc(-c3ccccc3)nn12 | > 11.5 µM | IC50 (HEPG2TOX_HILL_SLOPE 1.32, HEPG2TOX_R_SQUARED 0.936, PBLUC_HILL_SLOPE 1.62, PBLUC_R_SQUARED 0.566, read-out: LUCIFERASE INFECTION ASSAY - IC50): 3.75 µM
3 | CCCCN1C(=O)C(=O)c2cc(Br)cc(C)c21 | > 10 µM | IC50 (PBLUC_HILL_SLOPE 2.24, PBLUC_R_SQUARED 0.667, read-out: LUCIFERASE INFECTION ASSAY - IC50): 4.61 µM
4 | CC(C)Cn1c(=O)n(C)c(=O)c2c(SCC#N)nc(CC(C)(C)C)nc21 | > 10 µM | IC50 [1]: > 10 µM
5 | COC(=O)c1c(NC(=O)c2ccco2)c2cc(NC(C)Cc3ccccc3F)cnc2n1C (stereo unspecified) | > 7.33 µM | IC50 (HEPG2TOX_HILL_SLOPE 10.3, HEPG2TOX_R_SQUARED 0.591, PBLUC_HILL_SLOPE 7.35, PBLUC_R_SQUARED 0.509, read-out: LUCIFERASE INFECTION ASSAY - IC50): 6.19 µM
6 | Cc1cc(C(=O)COC(=O)c2ccccc2O)c(C)n1CC1CCCO1 (stereo unspecified) | 7.71 µM | IC50 (PBLUC_HILL_SLOPE 2.39, PBLUC_R_SQUARED 0.567, read-out: LUCIFERASE INFECTION ASSAY - IC50): 3.08 µM
7 | CN(C)c1cccc(-c2cnc3cnc(-c4cccnc4)cn23)c1 | > 10.5 µM | IC50 (PBLUC_HILL_SLOPE 3.32, PBLUC_R_SQUARED 0.395, read-out: LUCIFERASE INFECTION ASSAY - IC50): 8.6 µM
8 | Clc1ccc(Nc2nccc3nc(-c4ccccc4)[nH]c23)cc1 | > 10 µM | IC50 (PBLUC_HILL_SLOPE 3.81, PBLUC_R_SQUARED 0.353, read-out: LUCIFERASE INFECTION ASSAY - IC50): 6.7 µM
9 | O=C(Nc1ncc(Cc2cc(F)cc(F)c2)s1)c1ccc2nc[nH]c2c1 | 6.19 µM | IC50 [1]: 2.9 µM
10 | COc1ccc(-c2cc([N+](=O)[O-])ccc2OC(C)C(=O)N2CCC(C)CC2)cc1 (stereo unspecified) | 4.24 µM | IC50 (PBLUC_HILL_SLOPE 7.12, PBLUC_R_SQUARED 0.553, read-out: LUCIFERASE INFECTION ASSAY - IC50): 3.11 µM
11 | O=C1C=CC(=O)N1Cc1cccs1 | 7.49 µM | IC50 (HEPG2TOX_HILL_SLOPE 35.1, HEPG2TOX_R_SQUARED 0.828, PBLUC_HILL_SLOPE 12.7, PBLUC_R_SQUARED 0.168, read-out: LUCIFERASE INFECTION ASSAY - IC50): 6.3 µM
12 | CCOc1ccc(-c2nc(CSc3nnc(-c4ccccc4OC)n3CC)cs2)cc1 | > 10 µM | IC50 (HEPG2TOX_HILL_SLOPE 10.1, HEPG2TOX_R_SQUARED 0.28, PBLUC_HILL_SLOPE 16.2, PBLUC_R_SQUARED 0.242, read-out: LUCIFERASE INFECTION ASSAY - IC50): 9.09 µM
13 | CCCn1c(SCC2=C(C(=O)OCC)C(C)NC(=O)N2)nc2sc3c(c2c1=O)CCC(C(C)(C)CC)C3 (stereo unspecified) | > 10 µM | IC50 [1]: > 10 µM
14 | FC(F)(F)c1ccccc1NC(=S)N1CCCN(c2nc3ccc(Cl)cc3s2)CC1 | 2.54 µM | IC50 [1]: 2.32 µM
15 | O=C1/C(=C/c2ccc(F)cc2)CCC/C1=C\c1ccc(F)cc1 | > 10.6 µM | IC50 (HEPG2TOX_HILL_SLOPE 7.08, HEPG2TOX_R_SQUARED 0.955, read-out: LUCIFERASE INFECTION ASSAY - IC50): > 10.6 µM
16 | C=CCN(C(=O)c1sc2nc3n(c(=O)c2c1C)CCCCC3)c1nc2c(s1)CCCC2 | > 10 µM | IC50 (PBLUC_HILL_SLOPE 1.42, PBLUC_R_SQUARED 0.275, read-out: LUCIFERASE INFECTION ASSAY - IC50): > 10 µM
17 | CCOc1cc2c(cc1/C=C/C(=O)c1ccc(C)o1)OC(C)C2 (stereo unspecified) | > 10 µM | IC50 (PBLUC_HILL_SLOPE 2.56, PBLUC_R_SQUARED 0.238, read-out: LUCIFERASE INFECTION ASSAY - IC50): 9.29 µM

Row | Compound | IC90 | also measured
18 | Cc1cc(C)cc(NC(=O)C(NNC(=O)CC23CC4CC(CC(C4)C2)C3)c2ccccc2)c1 (stereo unspecified) | > 10 µM | IC50 [1]: > 10 µM
19 | O=C(Nc1cc(S(=O)(=O)c2ccccc2)cs1)c1cccc(Cl)c1 | > 8.73 µM | IC50 (FFLUC_HILL_SLOPE 2.16, FFLUC_R_SQUARED 0.469, read-out: LUCIFERASE INFECTION ASSAY - IC50): > 8.73 µM
20 | COc1ccc(-c2csc(N/C=C3/C(=O)NC(=O)c4ccccc43)n2)cc1OC | 8.15 µM | IC50 (HEPG2TOX_HILL_SLOPE 3.11, HEPG2TOX_R_SQUARED 0.952, PBLUC_HILL_SLOPE 3, PBLUC_R_SQUARED 0.801, read-out: LUCIFERASE INFECTION ASSAY - IC50): 3.92 µM
21 | O=C(NNC(=O)c1[nH]c2ccccc2c1-c1ccccc1)Nc1cccc(C(F)(F)F)c1 | > 7.53 µM | IC50 [1]: > 7.53 µM
22 | O=C(Nc1ncccc1O)c1ccc(-n2cnc3ccccc32)cc1 | 6.03 µM | IC50 (PBLUC_HILL_SLOPE 1.70, 2.04, PBLUC_R_SQUARED 0.693, 0.681, read-out: LUCIFERASE INFECTION ASSAY - IC50): 1.8 µM
23 | Cc1cccc(OC2=C(Cl)C(=O)c3ccccc3C2=O)c1 | > 11 µM | IC50 (HEPG2TOX_HILL_SLOPE 2.98, HEPG2TOX_R_SQUARED 0.916, PBLUC_HILL_SLOPE 1.18, PBLUC_R_SQUARED 0.608, read-out: LUCIFERASE INFECTION ASSAY - IC50): 5.41 µM
24 | CN(C)CCNC(=O)c1cccc(-c2cnc3ccc(-c4cccc(CO)c4)nn23)c1 | 1.58 µM | IC50 (HEPG2TOX_HILL_SLOPE 0.999, HEPG2TOX_R_SQUARED 0.943, PBLUC_HILL_SLOPE 3.71, PBLUC_R_SQUARED 0.586, read-out: LUCIFERASE INFECTION ASSAY - IC50): 0.873 µM
25 | NC(=O)c1cc(Cl)ccc1OCc1ccc(OC(F)(F)F)cc1 | > 10 µM | IC50 [1]: > 10 µM
26 | Cc1c(C(=O)Nc2ccc(Oc3ccccc3)cc2)[nH]c2c1C(=O)CCC2 | > 10 µM | IC50 (PBLUC_HILL_SLOPE 16.6, PBLUC_R_SQUARED 0.701, read-out: LUCIFERASE INFECTION ASSAY - IC50): 9.52 µM
27 | Cc1ccc(/N=C2\SCC(C)N2C(=O)c2ccccc2SCC(=O)NCC2CCCCC2)c(C)c1 (stereo unspecified) | > 10 µM | IC50 (FFLUC_HILL_SLOPE 15, FFLUC_R_SQUARED 0.0481, HEPG2TOX_HILL_SLOPE 2.13, HEPG2TOX_R_SQUARED 0.879, PBLUC_HILL_SLOPE 4.29, PBLUC_R_SQUARED 0.235, read-out: LUCIFERASE INFECTION ASSAY - IC50): 8.13 µM
28 | COc1ccc(-c2nc(C(=O)N3CCc4ccccc43)cs2)cc1OC | 2.46 µM | IC50 (HEPG2TOX_HILL_SLOPE 2.84, HEPG2TOX_R_SQUARED 0.79, PBLUC_HILL_SLOPE 2.13, PBLUC_R_SQUARED 0.686, read-out: LUCIFERASE INFECTION ASSAY - IC50): 0.875 µM
29 | CNc1snc(C)c1C(=O)NCc1ccc(COCC(F)(F)F)cc1 | 1.72 µM | IC50 (HEPG2TOX_HILL_SLOPE 1.16, HEPG2TOX_R_SQUARED 0.865, PBLUC_HILL_SLOPE 3.24, 27.9, PBLUC_R_SQUARED 0.892, 0.904, read-out: LUCIFERASE INFECTION ASSAY - IC50): 1.12 µM
30 | CCOC(=O)c1sc2sc(C(C)=O)c(C)c2c1C | > 11.7 µM | IC50 [1]: > 11.7 µM
31 | OCCNCCNCc1c(OCc2ccccc2Cl)ccc2ccccc12 | > 8.57 µM | IC50 (PBLUC_HILL_SLOPE 12.5, PBLUC_R_SQUARED 0.654, read-out: LUCIFERASE INFECTION ASSAY - IC50): 7.4 µM
32 | CC(C)n1ncc2cc(NC(=O)C3=Cc4ccccc4OC3)cnc21 | > 10 µM | IC50 (PBLUC_HILL_SLOPE 12, PBLUC_R_SQUARED 0.534, read-out: LUCIFERASE INFECTION ASSAY - IC50): 9.28 µM
33 | COc1ccc(-c2csc(NC(=O)c3cc4cc5ccc(OC)cc5nc4s3)n2)cc1 | > 10 µM | IC50 [1]: > 10 µM
